Laboratory results reported in US20230090708A1, “METHODS AND COMPOSITIONS FOR THE TREATMENT OF HEMANGIOMA” (MASSEY VENTURES LIMITED, priority 2020, published 2023).
Converted amounts (≈) assume the structure as drawn. Like-named read-outs stand apart in the source and are kept apart here.

Tests used:
[1] = cited from earlier work; for Half life: short or long acting: in words; for Half life: in vivo
[2] = cited from earlier work
[3] = test system: proliferating hemangioma cells; experiment: Experiment 7: different ACEi and beta blockers on one primary cell line, MTT; assay type: cell-based, human; conditions: for inhibition of proliferating hemangioma cells: 1 μM and 10 μM; for Results Summary: 72 hours, one cell line; for inhibition at 1 µM / inhibition at 10 µM: Homo sapiens, 72 h, read-out: Inhibition vs. Cells + Adjuvant at 72 Hours
Method: (§1) An in vitro cell culture model of infantile hemangioma was developed to assess the impact of renin-angiotensin system inhibitors on cellular proliferation. A primary cell line of proliferating infantile hemangioma cells, including haemangioma stem cells, was derived from a tissue biopsy obtained from patients during the proliferating phase of the disease. The primary cell lines are cultured in 25 cm^2 flasks using standard culture media and conditions. The cultured cells are used to seed 96-well plates with a seed cell concentration of 2500 or 5000 cells per well, with additional culture media (200 μL). All studies are performed in triplicate.
The plates are incubated overnight to allow cell adherence to the wells. The wells are photographed to confirm cell adherence and confluency. The appropriate drug(s) to be examined are subsequently added to the wells. […] The media is aspirated from each well and stored frozen for possible future analyses. Media is added to the wells and an MTT determination is undertaken according to standard protocols.
(§2) From the triplicate incubations of each drug concentration at each time, as well as for all controls, the mean±standard deviation is calculated. The net survival (optical density value) is calculated by subtracting the appropriate blank mean value from each cell culture. From the MTT data, the percentage of survival of cells in the presence of each concentration of drug after each time of culturing is determined.
Briefly, cells were seeded in 96-well plates at concentrations of 2500 cells/well in triplicate for each drug and drug combination. […] All plates were performed in triplicate. Beta blockers used in the study were (±)-propranolol, R-propranolol, S-propranolol, timolol, and betaxalol.

[4] = cited from earlier work; for Log P: Table 1
[5] = test system: proliferating hemangioma cell lines (n=9); experiment: Example 6: single agents and combinations on nine primary cell lines, MTT, CompuSyn combination index; assay type: cell-based, human; conditions: for dose-response across all cell lines: 1 to 10 μM, 72 hours, n=9
Method: as §1
The plates are incubated overnight to allow cell adherence to the wells. The wells are photographed to confirm cell adherence and confluency. The appropriate drug(s) to be examined are subsequently added to the wells. After 24 hours, one set of plates (experimental and blank) is stopped. The media is aspirated from each well and stored frozen for possible future analyses. Media is added to the wells and an MTT determination is undertaken according to standard protocols. This is repeated at 48 and 72 hours.
as §2
A study was undertaken using combinations of ACE inhibitors, beta blockers and angiotensin II type 2 receptor blockers to inhibit proliferating hemangioma cells. […] Patient histories pertaining to each cell line is described in Table 5.
The experimental protocol was performed as per Example 1. Briefly, cells were seeded in 96-well plates at concentrations of 2500 cells/well in triplicate for each drug and drug combination. Drug(s) were added to each well 24 hours after seeding and re-dosed every 24 hours. Cell viability was assessed by MTT assay after 24, 48, and 72 hours. All plates were performed in triplicate. Drugs were assessed alone and in combination, as described in Table 6. Propranolol was used as a model beta blocker, cilazapril as a model ACE inhibitor, and SMM02 (L-159686) as a model AT2Ri. Synergy was measured using the CompuSyn open-source software protocol for quantifying synergism and antagonism that uses the median-effect equation and mass-action laws to generate a combination index (www.compusyn.com). Synergism, additive effects and antagonism are defined as a CI<1, CI=1, and CI>1, respectively.

[6] = test system: proliferating infantile hemangioma cells derived from multiple patients (n=5); experiment: Example 4: single agents and combinations on five patient-derived cell lines, MTT; assay type: cell-based, human; conditions: for Individual Responders at 72 Hours with ≥30% Inhibition vs. Cells + Adjuvant: responders/cell lines; for Results Summary: 72 hours, n=5 cell lines; for Estimated Optimal Dosage Range in vitro / inhibition of all five patient-derived haemangioma cell lines: single agent
Method: An in vitro cell culture model of infantile hemangioma was developed to assess the impact of renin-angiotensin system inhibitors on cellular proliferation. A primary cell line of proliferating infantile hemangioma cells, including haemangioma stem cells, was derived from a tissue biopsy obtained from patients during the proliferating phase of the disease. The primary cell lines are cultured in 25 cm^2 flasks using standard culture media and conditions. The cultured cells are used to seed 96-well plates with a seed cell concentration of 2500 or 5000 cells per well, with additional culture media (200 μL). All studies are performed in triplicate. The plates are incubated overnight to allow cell adherence to the wells. The wells are photographed to confirm cell adherence and confluency. The appropriate drug(s) to be examined are subsequently added to the wells. After 24 hours, one set of plates (experimental and blank) is stopped. The media is aspirated from each well and stored frozen for possible future analyses. Media is added to the wells and an MTT determination is undertaken according to standard protocols. This is repeated at 48 and 72 hours. From the triplicate incubations of each drug concentration at each time, as well as for all controls, the mean±standard deviation is calculated. The net survival (optical density value) is calculated by subtracting the appropriate blank mean value from each cell culture. From the MTT data, the percentage of survival of cells in the presence of each concentration of drug after each time of culturing is determined. […] The experimental protocol was performed as per Example 1. Briefly, cells were seeded in 96-well plates at a concentration of 2500 cells/well in triplicate for each drug and drug combination. Drug(s) were added to each well 24 hours after seeding and re-dosed every 24 hours. Cell viability was assessed by MTT assay after 24, 48, and 72 hours. All plates were performed in triplicate. Drugs were assessed alone and in combination as described in Table 3.

[7] = test system: proliferating hemangioma cells; experiment: Example 5: R- and S-beta blockers alone and with cilazapril, MTT; assay type: cell-based, human
Method: An in vitro cell culture model of infantile hemangioma was developed to assess the impact of renin-angiotensin system inhibitors on cellular proliferation. A primary cell line of proliferating infantile hemangioma cells, including haemangioma stem cells, was derived from a tissue biopsy obtained from patients during the proliferating phase of the disease. The primary cell lines are cultured in 25 cm^2 flasks using standard culture media and conditions. The cultured cells are used to seed 96-well plates with a seed cell concentration of 2500 or 5000 cells per well, with additional culture media (200 μL). All studies are performed in triplicate. The plates are incubated overnight to allow cell adherence to the wells. The wells are photographed to confirm cell adherence and confluency. The appropriate drug(s) to be examined are subsequently added to the wells. After 24 hours, one set of plates (experimental and blank) is stopped. The media is aspirated from each well and stored frozen for possible future analyses. Media is added to the wells and an MTT determination is undertaken according to standard protocols. This is repeated at 48 and 72 hours. From the triplicate incubations of each drug concentration at each time, as well as for all controls, the mean±standard deviation is calculated. The net survival (optical density value) is calculated by subtracting the appropriate blank mean value from each cell culture. From the MTT data, the percentage of survival of cells in the presence of each concentration of drug after each time of culturing is determined. The experimental protocol was performed as per Example 1. Briefly, cells were seeded in 96-well plates at concentrations of 2500 cells/well in triplicate for each drug and drug combination. Drug(s) were added to each well 24 hours after seeding and re-dosed every 24 hours. Cell viability was assessed by MTT assay after 24, 48, and 72 hours. All plates were performed in triplicate. […] Timolol and propranolol were used as model beta blockers and cilazapril as a model ACE inhibitor.

proliferating IH = conditions: cited from earlier work
[8] = cited from earlier work; remark: listed apart in the source

CCOC(=O)[C@H](CCc1ccccc1)N[C@@H](C)C(=O)N1CCC[C@H]1C(=O)O [Enalapril]
Half life: short or long acting [1]: Long acting
pKa [2]: 2.97
pKa ([2]; second value): 5.35
inhibition of proliferating hemangioma cells [3]: good and similar level of inhibition
Results Summary [3]: Responder
inhibition at 1 µM ([3]; 1 μM): 1.55%
inhibition at 10 µM ([3]; 10 μM): 67.9%
Log P [4]: 0.07

C[C@H](N[C@@H](CCc1ccccc1)C(=O)O)C(=O)N1CCC[C@H]1C(=O)O [enalaprilat]
Half life [1]: 11 h (enalaprilat)

O=C(O)[C@@H]1CN(C(=O)N(c2ccccc2)c2ccccc2)CCN1C(=O)N(c1ccccc1)c1ccccc1 [SMM02, (S)-1,4-bis(N,N-diphenylcarbamoyl)piperazine-2-carboxylic acid]
dose-response across all cell lines [5]: non-linear dose-response
threshold concentration ([5]; single agent, consistent inhibition above it): 2.5 µM
Individual Responders at 72 Hours with ≥30% Inhibition vs. Cells + Adjuvant ([6]; 1 μM): 1 μM - 0/4
Individual Responders at 72 Hours with ≥30% Inhibition vs. Cells + Adjuvant ([6]; 10 μM): 10 μM - 5/5
Individual Responders at 72 Hours with ≥30% Inhibition vs. Cells + Adjuvant ([6]; 100 μM): 100 μM - 5/5
Results Summary [6]: Responder
Estimated Optimal Dosage Range in vitro [6]: 1 to 10 µM
inhibition of all five patient-derived haemangioma cell lines [6]: significantly inhibited

CC(C)NCC(O)COc1cccc2ccccc12 (stereo not drawn) [S(−) Propranolol, S-propranolol]
individual isomers compared with the racemic mixture ([7]; alone): as effective alone as the racemic mixture
attenuating hemangioma cell proliferation, propranolol vs timolol enantiomers ([7]; particularly at 1-5 μM): superior to R- and S-timolol
dose-response across all cell lines [5]: typical dose-response
Estimated Optimal Dosage Range [3]: 1 to 10 µM
Inhibition vs. Cells + Adjuvant at 72 Hours ([3]; 1 μM): 1 μM - No - 2.07%
Inhibition vs. Cells + Adjuvant at 72 Hours ([3]; 10 μM): 10 μM - Response - 45.68%
Results Summary [3]: Responder

C[C@H](N[C@@H](CCc1ccccc1)C(=O)O)C(=O)N1Cc2ccccc2C[C@H]1C(=O)O [Quinaprilat, quinaprilat]
Half life [1]: 3 h (quinaprilat)

O=C(O)CN1C(=O)[C@@H](N[C@@H](CCc2ccccc2)C(=O)O)CCc2ccccc21 [benazeprilat]
Half life [1]: 10 to 11 h

COc1ccc2c(c1OCc1ccccc1)C[C@@H](C(=O)O)N(C(=O)C(c1ccccc1)c1ccccc1)C2 [EMA401, (S)-5-(benzyloxy)-2-(2,2-diphenylacetyl)-6-methoxy-1,2,3,4-tetrahydroisoquinoline-3-carboxylic acid]
Individual Responders at 72 Hours with ≥30% Inhibition vs. Cells + Adjuvant ([6]; 1 μM): 1 μM - ¼
Individual Responders at 72 Hours with ≥30% Inhibition vs. Cells + Adjuvant ([6]; 10 μM): 10 μM - 4/5
Individual Responders at 72 Hours with ≥30% Inhibition vs. Cells + Adjuvant ([6]; 100 μM): 100 μM - 5/5
Results Summary [6]: Responder
Estimated Optimal Dosage Range in vitro [6]: 5 to 25 µM
inhibition of all five patient-derived haemangioma cell lines [6]: significantly inhibited

CC(C)NCC(O)COc1ccc(CCOCC2CC2)cc1 (stereo not shown) [Betaxolol]
inhibition of proliferating hemangioma cells [3]: no response
Results Summary [3]: Non-
inhibition at 1 µM ([3]; 1 μM): 2.8%
inhibition at 10 µM ([3]; 10 μM): < 0%

CCOC(=O)[C@H](CCc1ccccc1)N[C@@H](C)C(=O)N1Cc2ccccc2C[C@H]1C(=O)O [Quinapril]
Half life: short or long acting [1]: Short acting
pKa [2]: 3.7
pKa ([2]; second value): 5.2
inhibition of proliferating hemangioma cells [3]: good and similar level of inhibition
Results Summary [3]: Responder
inhibition at 1 µM ([3]; 1 μM): 4.87%
inhibition at 10 µM ([3]; 10 μM): 62.3%
Log P [4]: 3.2
log P [4]: 3.2

CCCCc1nc(Cl)c(CO)n1Cc1ccc(-c2ccccc2-c2nn[nH]n2)cc1 [Losartan]
Individual Responders at 72 Hours with ≥30% Inhibition vs. Cells + Adjuvant ([6]; 1 μM): 1 μM - 0/5
Individual Responders at 72 Hours with ≥30% Inhibition vs. Cells + Adjuvant ([6]; 10 μM): 10 μM - 0/5
Results Summary [6]: Non-Responder
inhibition of all five patient-derived haemangioma cell lines [6]: not

CCOC(=O)[C@H](CCc1ccccc1)N[C@@H](C)C(=O)N1[C@H](C(=O)O)C[C@H]2CCCC[C@@H]21 [Trandolapril]
Half life [1]: 6 h
Half life: short or long acting [1]: Long acting
pKa [2]: 3.8
pKa ([2]; second value): 5.2
inhibition of proliferating hemangioma cells [3]: good and similar level of inhibition
Results Summary [3]: Responder
inhibition at 1 µM ([3]; 1 μM): 0.63%
inhibition at 10 µM ([3]; 10 μM): 67.8%
Log P [4]: 3.5
log P [4]: 3.5

C[C@H](N[C@@H](CCc1ccccc1)C(=O)O)C(=O)N1[C@H](C(=O)O)C[C@H]2CCCC[C@@H]21 [Trandolaprilat, trandolaprilat]
Half life [1]: 10 h

C[C@H](CS)C(=O)N1CCC[C@H]1C(=O)O [Captopril]
patients with response scored dramatic (proliferating IH; n of eight patients): 3
patients with response scored medium (proliferating IH; n of eight patients): 2
patients with response scored slow (proliferating IH; n of eight patients): 3
effect on proliferating IH (proliferating IH; oral 1.5 mg/kg daily, eight patients): positive effect in all patients
rebound growth after treatment ceased (proliferating IH; treatment ceased after 14 months): no rebound growth
Solubility [8]: 130 mg/mL (≈ 598 mM)

C[C@H](N[C@@H](CCc1ccccc1)C(=O)O)C(=O)N1[C@H](C(=O)O)C[C@@H]2CCC[C@@H]21 [Ramiprilat, ramiprilat]
Half life [1]: 13 to 17 h
